According to US20150153326A1, “QUANTITATIVE ANALYSIS OF CONTACT-DEPENDENT CELL-TO-CELL TRANSFER AND DISEASE TRANSMISSION” (Bergen Teknologioverforing AS, BTO, priority 2013, published 2015):

Tested on: HeLa-Kyoto cells
Assay: contact-dependent cell-to-cell DiD organelle transfer, DiD-stained/unstained 1:400 co-culture, 3D confocal quantification
Assay type: cell-based
Settings: 100 nM, added 2 hours after plating, cells fixed after 18 hours, 1:400 cell ratio
Experimental: HeLa-Kyoto cells were cultured in DMEM:F12 supplemented with 10% fetal calf serum and 1% penicillin/streptomycin (Invitrogen Detection Technologies, Carlsbad, Calif., USA) on 24-well microscopy plates (Greiner Bio-One GmbH). Cells were maintained under humidified air supplemented with 5% CO2 at 37° C. and plated with a density of approximately 35 000 cells/cm^2. After 24 hours, 200 ng (5 μl)/ml lipid analog Vybrant® DiD Cell-Labelling solution (Invitrogen Detection Technologies, Carlsbad, Calif., USA) was added to the plated cells in culture medium, incubated at 37° C. for 20 min wherein tilted 5 times. After the incubation period, the culture medium was exchanged 4 times within 2 hours. […]
Cells were imaged with a Leica confocal SP5 in resonant scanner mode (zoom 1.7; pinhole airyl; 40× 1.25NA oil immersion objective; 512×512 pixel; z-distance 1.01 μm, line-average 16; offset −1; gain 900-1000V. For the DiD-channel laser power was adjusted for each experiment to a strength resulting in approximately half a cell diameter of out-of-detection range data for average donor cells in order to quantify the transferred DiD in the surrounding cells, present in much lower quantities. For all other channels, the laser power was adjusted to few out-of-detection range pixels at the upper end of the scale. […]

## C=C1[C@@H](C)[C@H]2[C@H](Cc3ccccc3)NC(=O)[C@]23[C@H](OC(C)=O)/C=C/[C@@](C)(O)C(=O)[C@@H](C)C/C=C/[C@H]3[C@@H]1O [Cytochalasin D]
  contact-dependent cell-to-cell DiD transfer (integrated intensity of DiD signal inside acceptor cells) compared to control: substantially inhibited
